Where “and” joins values, the source holds several entries; their conditions need not be identical. Equal values may be shown once. Read-outs that look alike come from different tables or passages of the source.
What was measured:
SARS-CoV-2 [1] = assay: Viral loading determination via RT-qPCR in LC-HK2 cells; assay type: cell-based; conditions: for Viral titer (% control): LC-HK2, RT-qPCR
CatL [2] = biological target: T1, CatL (Homo sapiens, UniProt P07711); assay: Cathepsin inhibition test, CatL; assay type: biochemical; conditions: for Residual activity (Vi/V0): Fig. S3 panel b, single replicates
T1 construct: made in house
T1 sequence (P07711 114-333): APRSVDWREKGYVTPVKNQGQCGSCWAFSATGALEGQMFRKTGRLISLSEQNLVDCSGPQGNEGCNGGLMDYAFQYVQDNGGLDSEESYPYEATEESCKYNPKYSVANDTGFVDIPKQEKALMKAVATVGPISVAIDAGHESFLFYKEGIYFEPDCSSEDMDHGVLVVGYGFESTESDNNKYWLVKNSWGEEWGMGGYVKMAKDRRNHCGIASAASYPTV

SARS-CoV-2 [3] = assay: Cytopathic effect inhibition assay in VERO-CCL81 cells; assay type: cell-based; conditions: for CPE inhibition (%): VERO CCL81
CatL [4] = biological target: T1, CatL; assay: Reversibility of covalent cathepsin inhibition (CatL, 60 min incubation); assay type: biochemical; conditions: 1 nM CatL, 1–80 nM inhibitor, 37 °C
Excerpt: We observed no increase in relative inhibition over time, thus concluding that the covalent bond between cathepsins and inhibitors is reversible.

human CatV = biological target: T2, human CatV (Homo sapiens, UniProt O60911); assay: Cathepsin inhibition test, CatV; assay type: biochemical; conditions: Fig. S3 panel c, single replicates
T2 construct: made in house
T2 sequence (O60911 114-334): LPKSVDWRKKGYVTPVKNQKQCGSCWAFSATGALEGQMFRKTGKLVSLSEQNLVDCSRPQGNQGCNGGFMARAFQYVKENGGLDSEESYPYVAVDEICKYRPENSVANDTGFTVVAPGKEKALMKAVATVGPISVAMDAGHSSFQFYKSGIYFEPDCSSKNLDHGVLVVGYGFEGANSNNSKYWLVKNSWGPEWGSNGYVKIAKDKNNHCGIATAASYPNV

SARS-CoV-2 [5] = assay: Cytopathic effect inhibition assay in LC-HK2 cells; assay type: cell-based; conditions: for CPE inhibition (%): LC-HK2
SARS-CoV-2 [6] = assay: Viral loading determination via RT-qPCR in VERO-CCL81 cells; assay type: cell-based; conditions: for Viral titer (% control): VERO CCL81, RT-qPCR, experiments 1 and 2
[7] = inhibitor 0.105 nM, 0.000105 µM
[8] = inhibitor 0.189 nM, 0.000189 µM
[9] = inhibitor 0.612 nM, 0.000612 µM
[10] = inhibitor 1.103 nM, 0.001103 µM
[11] = inhibitor 1.985 nM, 0.001985 µM

What does the source list for `CCCC[C@@H](C=O)NC(=O)[C@H](CC(C)C)NC(=O)OCc1ccccc1` [Calpeptin, reference compound]?
Viral titer (% control) (SARS-CoV-2 [1]; 0.0006 μM): 100 % control; Viral titer (% control) (SARS-CoV-2 [1]; 0.0012 μM): 100 % control; Viral titer (% control) (SARS-CoV-2 [1]; 0.0024 μM): 100 % control; Viral titer (% control) (SARS-CoV-2 [1]; 0.0049 μM): 100 % control; Viral titer (% control) (SARS-CoV-2 [1]; 0.0098 μM): 100 % control; Viral titer (% control) (SARS-CoV-2 [1]; 0.0195 μM): 100 % control; Viral titer (% control) (SARS-CoV-2 [1]; 0.0391 μM): 100 % control; Viral titer (% control) (SARS-CoV-2 [1]; 0.0781 μM): 100 % control; Viral titer (% control) (SARS-CoV-2 [1]; 0.1563 μM): 100 % control and 71.76 % control; Viral titer (% control) (SARS-CoV-2 [1]; 0.3125 μM): 77.19 % control and 100 % control; Viral titer (% control) (SARS-CoV-2 [1]; 0.625 μM): 85.89 % control and 100 % control; Viral titer (% control) (SARS-CoV-2 [1]; 1.25 μM): 75.06 % control and 100 % control; Viral titer (% control) (SARS-CoV-2 [1]; 100 μM): 0 % control; EC50 (SARS-CoV-2 [1]; Severe acute respiratory syndrome coronavirus 2, LC-HK2, RT-qPCR, 72 h post-infection, read-out: Viral titer EC50): 1700 nM; Residual activity (Vi/V0) (CatL [2]; inhibitor 0.010 nM, 10 pM): 1.181 and 1.134 and 0.9277 and 1.059 and 0.8624 and 0.9348 and 0.9777 and 1.017 and 0.9832 and 0.6727; Residual activity (Vi/V0) (CatL [2]; inhibitor 0.018 nM, 18 pM): 1.262 and 1.015 and 0.8756 and 0.9203 and 0.9271 and 0.9762 and 0.9712 and 1.058 and 1.013 and 1.061; Residual activity (Vi/V0) (CatL [2]; inhibitor 0.032 nM, 32 pM): 1.274 and 1.3352 and 0.8294 and 0.9418 and 0.8372 and 0.9412 and 1.0025 and 0.9769 and 1.076 and 1.186; Residual activity (Vi/V0) (CatL [2]; inhibitor 0.058 nM, 58 pM): 1.241 and 1.238 and 0.7232 and 0.8381 and 0.7506 and 0.9356 and 0.9293 and 0.9501 and 1.073 and 1.146; Residual activity (Vi/V0) (CatL [2]; [7]): 1.299 and 0.9537 and 0.6352 and 0.6893 and 0.6342 and 0.9772 and 0.9319 and 0.9262 and 1.17 and 1.244; Residual activity (Vi/V0) (CatL [2]; [8]): 1.276 and 0.7939 and 0.4796 and 0.5261 and 0.4831 and 0.8363 and 0.8485 and 0.8665 and 1.045 and 0.9948; Residual activity (Vi/V0) (CatL [2]; inhibitor 0.340 nM, 0.00034 µM): 1.076 and 0.6362 and 0.1912 and 0.3311 and 0.2442 and 0.7013 and 0.6724 and 0.6039 and 0.9136 and 0.9341; Residual activity (Vi/V0) (CatL [2]; [9]): 0.7699 and 0.3953 and 0.2966 and 0.328 and 0.2718 and 0.8608 and 0.8769 and 0.888 and 0.6121 and 0.7229; Residual activity (Vi/V0) (CatL [2]; [10]): 0.6194 and 0.292 and 0.1922 and 0.2117 and 0.1777 and 0.7372 and 0.725 and 0.6702 and 0.5009 and 0.6045; Residual activity (Vi/V0) (CatL [2]; [11]): 0.4333 and 0.2071 and 0.1127 and 0.1262 and 0.1102 and 0.4283 and 0.4219 and 0.4519 and 0.4308 and 0.4332; Ki (CatL [2]; mean with standard deviation and 95% confidence interval, pH 5.5, 37 °C): 0.131 nM; inhibition at 0.3125 µM (SARS-CoV-2 [3]; Severe acute respiratory syndrome coronavirus 2, VERO CCL81, 0.3125 μM, two experiments, read-out: CPE inhibition (%)): 26.9%; inhibition at 0.625 µM (SARS-CoV-2 [3]; Severe acute respiratory syndrome coronavirus 2, VERO CCL81, 0.625 μM, two experiments, read-out: CPE inhibition (%)): 31.8%; inhibition at 1.25 µM (SARS-CoV-2 [3]; Severe acute respiratory syndrome coronavirus 2, VERO CCL81, 1.25 μM, two experiments, read-out: CPE inhibition (%)): 41.2%; inhibition at 2.5 µM (SARS-CoV-2 [3]; Severe acute respiratory syndrome coronavirus 2, VERO CCL81, 2.5 μM, two experiments, read-out: CPE inhibition (%)): 49.3%; inhibition at 5 µM (SARS-CoV-2 [3]; Severe acute respiratory syndrome coronavirus 2, VERO CCL81, 5 μM, two experiments, read-out: CPE inhibition (%)): 61.9%; inhibition at 10 µM (SARS-CoV-2 [3]; Severe acute respiratory syndrome coronavirus 2, VERO CCL81, 10 μM, two experiments, read-out: CPE inhibition (%)): 64.6%; EC50 (SARS-CoV-2 [3]; Severe acute respiratory syndrome coronavirus 2, VERO-CCL81, CellTiter-Glo, 48 h post-infection, read-out: CPE inhibition EC50): 400 nM; CPE inhibition (%) (SARS-CoV-2 [3]; 0.1563 μM, two experiments): 12.75% and 5.21%; CPE inhibition (%) (SARS-CoV-2 [3]; 0.3125 μM, two experiments): 21.14%; CPE inhibition (%) (SARS-CoV-2 [3]; 0.625 μM, two experiments): 29.81%; CPE inhibition (%) (SARS-CoV-2 [3]; 1.25 μM, two experiments): 49.13%; CPE inhibition (%) (SARS-CoV-2 [3]; 2.5 μM, two experiments): 33.89%; CPE inhibition (%) (SARS-CoV-2 [3]; 5 μM, two experiments): 61.52%; CPE inhibition (%) (SARS-CoV-2 [3]; 10 μM, two experiments): 53.9%; reversibility of covalent bond to cathepsin (CatL [4]): reversible; Residual activity (Vi/V0) (human CatV; inhibitor 0.010 nM, 10 pM): 0.7492 and 0.8662 and 0.9665 and 0.9783 and 1.034 and 0.8959 and 1.049 and 1.043; Residual activity (Vi/V0) (human CatV; inhibitor 0.018 nM, 18 pM): 1.426 and 1.071 and 0.8111 and 0.946 and 1.016 and 0.7983 and 1.052 and 1.107; Residual activity (Vi/V0) (human CatV; inhibitor 0.032 nM, 32 pM): 0.6155 and 0.7103 and 0.8989 and 0.8852 and 0.9741 and 0.7786 and 1.073 and 1.106; Residual activity (Vi/V0) (human CatV; inhibitor 0.058 nM, 58 pM): 0.4678 and 0.5573 and 0.8821 and 0.907 and 0.9499 and 0.7317 and 1.135 and 1.04; Residual activity (Vi/V0) (human CatV; [7]): 0.3395 and 0.4697 and 0.9391 and 1.0131 and 0.8776 and 0.5515 and 1.047 and 0.9299; Residual activity (Vi/V0) (human CatV; [8]): 0.2218 and 0.3638 and 0.7852 and 0.7629 and 0.7844 and 0.3361 and 0.9055 and 0.7253; Residual activity (Vi/V0) (human CatV; inhibitor 0.340 nM, 0.00034 µM): 0.127 and 0.1861 and 0.5926 and 0.6199 and 0.6546 and 0.1805 and 0.6841 and 0.4951; Residual activity (Vi/V0) (human CatV; [9]): 0.08315 and 0.0899 and 0.6171 and 0.6648 and 0.6032 and 0.1116 and 0.3127 and 0.292; Residual activity (Vi/V0) (human CatV; [10]): 0.07258 and 0.065 and 0.4015 and 0.4879 and 0.4441 and 0.08067 and 0.1763 and 0.1568; Residual activity (Vi/V0) (human CatV; [11]): 0.02995 and 0.03856 and 0.2299 and 0.2925 and 0.2801 and 0.03165 and 0.06168 and 0.07508; Residual activity (Vi/V0) (human CatV; inhibitor 3.572 nM, 0.003572 µM): 0.007933 and 0.009299 and 0.124 and 0.1265 and 0.09125 and 0.0154 and 0.02738 and 0.02841; Residual activity (Vi/V0) (human CatV; inhibitor 6.430 nM, 0.00643 µM): 0.0062 and 0.004492 and 0.03048 and 0.04147 and 0.02591 and 0.007404 and 0.008251 and 0.01699; Residual activity (Vi/V0) (human CatV; inhibitor 11.547 nM, 0.011547 µM): 0.001379 and -0.0006257 and 0.001045 and 0.01451; CPE inhibition (%) (SARS-CoV-2 [5]; 0.0000000001 μM, 1e-10 µM): 6.04%; CPE inhibition (%) (SARS-CoV-2 [5]; 0.00000001 μM, 10 fM): 8.96%; CPE inhibition (%) (SARS-CoV-2 [5]; 0.0000001 μM, 100 fM): 9.11%; CPE inhibition (%) (SARS-CoV-2 [5]; 0.001 μM): 0.77%; CPE inhibition (%) (SARS-CoV-2 [5]; 0.01 μM): 24.54%; CPE inhibition (%) (SARS-CoV-2 [5]; 0.1 μM): 36.51%; CPE inhibition (%) (SARS-CoV-2 [5]; 1 μM): 50.4%; CPE inhibition (%) (SARS-CoV-2 [5]; 10 μM): 59.73%; inhibition at 1e-12 µM (SARS-CoV-2 [5]; Severe acute respiratory syndrome coronavirus 2, LC-HK2, 0.000000000001 μM (first of two lines so printed, r18), read-out: CPE inhibition (%)): 0%; inhibition at 1e-12 µM (SARS-CoV-2 [5]; Severe acute respiratory syndrome coronavirus 2, LC-HK2, 0.000000000001 μM (second line, r19), read-out: CPE inhibition (%)): 0%; inhibition at 1e-11 µM (SARS-CoV-2 [5]; Severe acute respiratory syndrome coronavirus 2, LC-HK2, 0.00000000001 μM, read-out: CPE inhibition (%)): 0%; inhibition at 1 fM (SARS-CoV-2 [5]; Severe acute respiratory syndrome coronavirus 2, LC-HK2, 0.000000001 μM, read-out: CPE inhibition (%)): 0%; inhibition at 10 pM (SARS-CoV-2 [5]; Severe acute respiratory syndrome coronavirus 2, LC-HK2, 0.00001 μM, read-out: CPE inhibition (%)): 0%; inhibition at 0.0001 µM (SARS-CoV-2 [5]; Severe acute respiratory syndrome coronavirus 2, LC-HK2, 0.0001 μM, read-out: CPE inhibition (%)): 0%; inhibition at 0.01 µM (SARS-CoV-2 [5]; Severe acute respiratory syndrome coronavirus 2, LC-HK2, 0.01 μM, read-out: CPE inhibition (%)): 19%; inhibition at 0.1 µM (SARS-CoV-2 [5]; Severe acute respiratory syndrome coronavirus 2, LC-HK2, 0.1 μM, read-out: CPE inhibition (%)): 24.4%; inhibition at 1 µM (SARS-CoV-2 [5]; Severe acute respiratory syndrome coronavirus 2, LC-HK2, 1 μM, read-out: CPE inhibition (%)): 60.8%; inhibition at 10 µM (SARS-CoV-2 [5]; Severe acute respiratory syndrome coronavirus 2, LC-HK2, 10 μM, read-out: CPE inhibition (%)): 52.8%; EC50 (SARS-CoV-2 [5]; Severe acute respiratory syndrome coronavirus 2, LC-HK2, CellTiter-Glo, 72 h post-infection, read-out: CPE inhibition EC50): 60 nM; EC50 (SARS-CoV-2 [6]; Severe acute respiratory syndrome coronavirus 2, VERO-CCL81, RT-qPCR, 48 h post-infection, read-out: Viral titer EC50): 990 nM; Viral titer (% control) (SARS-CoV-2 [6]; 0.0781 μM): 100 % control; Viral titer (% control) (SARS-CoV-2 [6]; 0.1563 μM): 100 % control; Viral titer (% control) (SARS-CoV-2 [6]; 0.3125 μM): 100 % control and 79.17 % control; Viral titer (% control) (SARS-CoV-2 [6]; 0.625 μM): 59.82 % control and 89.92 % control; Viral titer (% control) (SARS-CoV-2 [6]; 1.25 μM): 52.69 % control and 49.08 % control; Viral titer (% control) (SARS-CoV-2 [6]; 2.5 μM): 27.29 % control and 39.96 % control; Viral titer (% control) (SARS-CoV-2 [6]; 5 μM): 41.34 % control and 28.43 % control; Viral titer (% control) (SARS-CoV-2 [6]; 10 μM): 15.97 % control and 10.75 % control
